Here are results for two compounds from patent publication US6087337A, “Method for treating benign and malignant proliferative skin disease” (Biomeasure Inc., priority 1993, dated 2000).

For test [1], the system named is B16-F10 melanoma. Description: Response of intradermally implanted B16-F10 melanoma xenografts to topically applied Somatuline BIM-23014C. The format is in vivo, BALB/c derived athymic nude female mice. How it is done: Response of Intradermally Implanted B16-F10 Melanoma Xenografts to Topically Applied Somatuline BIM-23014C
Eighteen BALB/c derived athymic nude female mice were implanted intradermally (ID), on the right flank, with a 0.02 to 0.05 ml suspension of in vitro propagated B16-F10 melanoma cells suspended in a normal saline solution. Implantation was done with a 23 gauge needle attached to a 1.0 ml syringe on day 0. Such an intradermal implant of the murine B16-F10 melanoma is essentially orthotopic and gives rise to an extremely fast growing tumor. By day 2, flat melanotic growths were evident at the injection site. The lesions resembled in situ melanomas.
Somatuline (D-β-Nal-Cys-Tyr-D-Trp-Lys-Val-Cys-Thr-NH2, available from Biomeasure, Inc. under the product code BIM-23014C) was added to a 50% DMSO in saline solution at a concentration of 10 mgs/ml. After wiping the skin with a gauze pad wet with isopropyl alcohol, a drop (approximately 0.05 ml) of the Somatuline solution was applied to the skin surface of the mice over the melanotic lesion. The solution was rubbed into the skin for approximately 1 minute with a latex gloved (Baxter Scientific Products/Flexam) finger. Well over half of the drop of Somatuline was not absorbed and was lost after the rubbing-in procedure. The controls were treated identically with 50% DMSO in saline solution without any somatostatin analog. Topical treatments were applied twice daily for 11 days beginning on day 3 post implantation.

Test [2] relates to insulin, glucagon, and growth hormone release. The settings on record: times more potent than naturally occurring somatostatin; cited from earlier work.

Regarding `CC(C)[C@@H]1NC(=O)[C@H](CCCCN)NC(=O)[C@@H](Cc2c[nH]c3ccccc23)NC(=O)[C@H](Cc2ccc(O)cc2)NC(=O)[C@@H](NC(=O)[C@H](N)Cc2ccc3ccccc3c2)CSSC[C@@H](C(=O)N[C@H](C(N)=O)[C@@H](C)O)NC1=O` [BIM-23014C, D-β-Nal-Cys-Tyr-D-Trp-Lys-Val-Cys-Thr-NH2], the “Tumor Wt. (mgs) Day 12” value in test [1] (0.05 ml topical of DMSO/Saline vehicle containing 10 mg/ml, b.i.d., q.d. 3-14, intradermal B16-F10 implant in nude mice, day 12) is reported as 185.9 ± 47 mgs. For the same compound, the “growth of the melanotic lesion (tumor growth curves FIG. 1, photographs FIG. 2, days 4, 7, 11)” value in test [1] (topical Somatuline solution 10 mgs/ml in 50% DMSO in saline, twice daily, compared to control mice) is “clear growth inhibition”. Besides, the “% T/C” value in test [1] (tumor weight day 12, treated vs DMSO/Saline vehicle control, 0.05 ml topical, 10 mg/ml, b.i.d., q.d. 3-14) was found to be 35%.
Take cyclo(N-Me-Ala-Tyr-D-Trp-Lys-Val-Phe): in test [2], the “potency relative to naturally occurring somatostatin for the inhibition of insulin, glucagon, and growth hormone release” value is listed as 50-100 times.
